This note sets out measurements from patent US20170224731A1, “METHOD OF PRODUCING LEUKOCYTES USING PTPN2 INHIBITION FOR ADOPTIVE CELL TRANSFER” (MONASH UNIVERSITY, priority 2014, published 2017).

Series [1] concerns Naive (CD62LhiCD44lo) CD8+ LN T cells. Briefly: Stimulation of naive CD8+ LN T cells with anti-CD3/anti-CD28 ± PTPN2 inhibitor, MFI by flow cytometry (FIG. 14). The format is cell-based, C57BL/6 mice. To be noted: anti-CD3 (5 μg/ml) and anti-CD28 (5 μg/ml) for 60 h, inhibitor at various concentrations. How it is done:
FIG. 14. […] Naive (CD62LhiCD44lo) CD8+ LN T cells (1×105) from C57BL/6 mice were stimulated with plate-bound anti-CD3 (5μg/ml) and anti-CD28 (5μg/m1) for 60 h±PTPN2 inhibitor at various concentrations. Cells were harvested and stained with fluorochrome-conjugated antibodies for CD44, CD69, CD25 and CD62L and mean fluorescence intensity (MFI) analyzed by flow cytometry. Results shown are means±SD for the indicated number of replicates.
CD8^+CD62L^hiCD44^lo naïve LN T cells (1×10^5/well) were stimulated in 96-well round-bottom plates with plate-bound α-CD3 (5 μg/ml) and a-CD28 (5 μg/ml) for 60 h. PTPN2 inhibitor was added twice daily to the culture. To determine the activation status cells were harvested, stained with fluorochrome-conjugated antibodies against α-CD25, α-CD44, α-CD62L and α-CD69 and analysed by flow cytometry.
In FIG. 14, the results of naive)(CD62L^hiCD44^loCD8+ LN T cells (1×105) from C57BL/6 mice that were stimulated with plate-bound anti-CD3 (5 μg/ml) and anti-CD28 (5 μg/ml) for 60 h±PTPN2 inhibitor (compound 8) at various concentrations is shown. Cells were harvested and stained with fluorochrome-conjugated antibodies for CD44, CD69, CD25 and CD62L and mean fluorescence intensity (MFI) analyzed by flow cytometry. Results shown are means±SD for the indicated number of replicates.

The test system of series [2] is Her-2 specific CAR T cells. Briefly: Her-2-specific CAR T cells incubated with 24JK-Her-2 sarcoma cells, secreted IFNγ by ELISA (FIG. 20). Format: cell-based, mouse. To be noted: with 24JK-Her-2, 24JK or medium alone, versus vehicle control. How it is done: FIG. 20. […] Her-2-specific CAR T cells were incubated with Her-2 expressing 24JK sarcoma cells (24JK-Her-2) or 24JK sarcoma cells (24JK) or medium alone, in the presence of vehicle control or the PTPN2 inhibitor, compound 8 (described herein). T cell activation was assessed by monitoring for secreted IFNγ by ELISA (Mouse IFNγELISA Set, BD OptEIA™) according to the supplier's specifications. Tests were performed in triplicates (±SD).
Her-2-specific CAR T cells were incubated with Her-2 expressing 24JK sarcoma cells (24JK-Her-2) or 24JK sarcoma cells (24JK) or medium alone, in the presence of vehicle control or the PTPN2 inhibitor, compound 8 (described herein). T cell activation was assessed by monitoring for secreted IFNγ by ELISA (Mouse IFNγELISA Set, BD OptEIA™) according to the supplier's specifications. Tests were performed in triplicates (±SD).

Series [3] relates to CD8+ human blood lymphocytes. Briefly: Human PBMC stimulation with plate-bound α-CD3, T cell activation (CD69, CD154) by flow cytometry (FIG. 16). The format is cell-based. Conditions: human PBMCs, plate-bound α-CD3 (1.25 and 2.5 μg/ml) for 24 h. The method, then:
FIG. 16. […] Freshly isolated human PBMCs (2×10^6) were stimulated with plate-bound α-CD3 (1.25 and 2.5 μg/ml) for 24 h. PBMCs were harvested and stained with fluorochrome-conjugated antibodies for CD45RA, CD8, CD69 and CD154 and T cell activation was monitored by flow cytometry. Representative CD8 versus CD69 and CD154 plots (numbers in outlined areas are the relative numbers in the gate) are shown.
(§1) Human blood was collected in 15 ml glass tubes containing Ficoll® gradient (GE Healthcare Life Sciences, Amersham, UK). Peripheral blood […] (PBMCs) were recovered by centrifugation (2200×rpm, 20 min at room temperature). PBMCs were incubated with PTPN2 inhibitor (compound 8) in serum-free RPMI 1640 for two hours at 37° C. and stimulated with plate-bound human α-CD3 (5 μg/ml; clone OKT-3) for 24 h. Cells were harvested and stained with fluorochrome-conjugated antibodies against α-CD8, α-CD45RA, α-CD154 and α-CD69 and analysed by flow cytometry to determine their activation status. To monitor T cells proliferation Calibrite Beads™ were added to the wells before cells were harvested.
Freshly isolated human PBMCs (2×10^6) were stimulated with plate-bound α-CD3 (1.25 and 2.5 μg/ml) for 24 h. PBMCs were harvested and stained with fluorochrome-conjugated antibodies for CD45RA, CD8, CD69 and CD154 and T cell activation was monitored by flow cytometry. […]
For orientation: In flow cytometry, cells or beads pass a laser one at a time.

Series [4] concerns CD8+ human blood lymphocytes. Briefly: Human PBMC stimulation with plate-bound α-CD3, CD8+ T cell proliferation by flow cytometry with Calibrite Beads (FIG. 19). Format: cell-based. Conditions: human PBMCs, plate-bound α-CD3 for 48 h and 72 h, versus vehicle control. The method, then: FIG. 19. […] Freshly isolated human PBMCs (2×10^6) were stimulated with plate-bound α-CD3 for (A) 48 h and (B) 72 h, in the presence of vehicle control or the PTPN2 inhibitor, compound 8 (as described herein). PBMCs were harvested and stained with fluorochrome-conjugated α-CD8. Calibrite Beads™ were added and T cell proliferation was monitored by flow cytometry. Results shown are means±SD for the indicated number of replicates.
as §1
Freshly isolated human PBMCs (2×10^6) were stimulated with plate-bound α-CD3 for (A) 48 h and (B) 72 h, in the presence of vehicle control or the PTPN2 inhibitor, compound 8 (as described herein). […] Calibrite Beads™ were added and T cell proliferation was monitored by flow cytometry. […]

Series [5] deals with CD8+ naïve (CD62LhiCD44lo) splenic T cells. Nature of the series: Activation of naive CD8+ splenic T cells with plate-bound αCD3/CD28, surface markers by flow cytometry (FIG. 11). Conditions: plate-bound αCD3/CD28 for 48 h, versus vehicle. The format is cell-based, C57BL/6 mice. The source says:
FIG. 11. […] T cells were stained with fluorochrome-conjugated antibodies to assess CD44, CD62L, IL-2Ra (CD25 subunit) and CD69 surface levels and mean fluorescence intensity (MFI) was monitored by flow cytometry.
T cells were stained with fluorochrome-conjugated antibodies to assess CD44, CD62L, IL-2Rα (CD25 subunit) and CD69 surface levels and mean fluorescence intensity (MFI) was monitored by flow cytometry.

The subject of another series is murine CD8+ T cells. Briefly: PTPN2 siRNA knock down in splenocytes, CD8+ T cell numbers after α-CD3/α-CD28 stimulation (FIG. 17). Conditions: 30 nM, 100 nM and 300 nM siRNA, α-CD3/α-CD28 (5 μg/ml each) for 48 h, versus GFP siRNA. Format: cell-based, C57BL/6 mice. The method, then: FIG. 17. Knock down of PTPN2 using siRNAs in murine CD8+ T cells leads to enhanced TCR-mediated T cell responses. Splenocytes (1×10^7) from C57BL/6 mice were transfected overnight with 100 nM GFP siRNA or 30 nM, 100 nM and 300 nM PTPN2 siRNA or 30 nM BLOCK-iT™ Fluorescent Oligo using the Amaxa Mouse T cell Nucleofactor Kit. (A) Transfection efficiency of CD8^+ T cells was monitored with BLOCK-iT™ Fluorescent Oligo (Fluor.Oligo) by flow cytometry. (B) Transfected splenocytes were stimulated with plate-bound α-CD3 (5 μg/ml) and α-CD28 (5 μg/ml) for 48 h and stained with fluorochrome-conjugated α-CD8. CD8^+ T cell numbers were quantified with Calibrite Beads™ by flow cytometry. Results shown are means±SD for the indicated number of replicates.
Ptpn2 was knocked down transiently in primary murine T cells using Ptpn2 ([…], SEQ ID NO: 14); Dharmacon Thermo Scientific, Waltham, Mass.); green fluorescent protein (GFP; CAAGCUGACCCUGAAGUUCdTdT; Dharmacon Thermo Scientific, Waltham, Mass.) siRNA was used as a control. […] T cell numbers were monitored by flow cytometry. For quantification Calibrite Beads (BD Biosciences) were added to the wells before cells were harvested.
Splenocytes (1×10^7) from C57BL/6 mice were transfected overnight with 100 nM GFP siRNA or 30 nM, 100 nM and 300 nM PTPN2 siRNA using the Amaxa Mouse T cell Nucleofactor Kit. […] CD8+ T cell numbers were quantified by flow cytometry. […]

As for `CCc1ccc(C(=O)NCCCCC(NC(=O)C(Cc2ccc(C(F)(F)P(=O)(O)O)cc2)NC(=O)C(Cc2ccccc2)NC(=O)COC2CC(C)CCC2C(C)C)C(N)=O)cc1` (stereo not drawn) [compound 8], in series [1], the “activated phenotype of naive CD8+ T cells (CD44, CD69, CD25, CD62L MFI)” value is recorded as “stimulates naive CD8+ T cells to an activated phenotype”. Besides, the “tumour-specific activation of Her-2 specific CAR T cells (secreted IFNγ)” value in series [2] is listed as “enhances the tumour-specific activation of Her-2 specific CAR T cells ex vivo”. In series [3], the “TCR-mediated T cell activation (CD69, CD154)” value was “enhanced TCR-mediated T cell activation”. Further, in series [4], the “TCR-mediated T cell proliferation” value is reported as “enhanced TCR-mediated T cell proliferation”. Besides, the “polyclonal CD8+ T cell activation (CD44, CD62L, CD25, CD69 surface levels, MFI)” value in series [5] is recorded as “enhances polyclonal CD8^+ T cell activation ex vivo”.

Consider “AAGCCCAUAUGAUCACAGUCG (listed as RNA, chemistry not given here) [PTPN2 siRNA, siRNA used to knock down Ptpn2 transiently in primary murine T cells (Dharmacon)]”, for which the “TCR-mediated T cell responses (CD8+ T cell number)” value in the series with murine CD8+ T cells is “dose response increase in cell number”.
